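Method: 48-hour compound exposure of cells in 96-well plates, five concentrations, linear interpolation of endpoints. GI50 marks 50% less growth. TGI is the concentration that stops growth completely.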

The test system of one assay is SK-MEL-28 melanoma. Description: NCI anticancer screen, dose series, 48 h.
Turning to `O=[N+]([O-])c1ccc(-c2cc3c(Nc4ccc(Cl)c(C(F)(F)F)c4)ncnc3s2)cc1`, the GI50 was 2.24 µM and the TGI is above 100 µM.

`Cc1ccccc1/C=C/C(=O)c1ccccc1` had a TGI of 33.9 µM.

As for `CC1(C)CC(=O)C(CC2C(=O)c3ccccc3C2=O)C(=O)C1`, the TGI was above 100 µM.

Take `CCOC(=O)N1CCN(CCCCCOc2ccccc2C2CCCCC2)CC1`: the GI50 was 2.87 µM and the TGI was determined as 16.3 µM.

The compound `Cc1ccc(C)c(N2C(=O)C(=O)C(c3nc4ccccc4s3)C(=Nc3cccc4c(=O)[nH][nH]c(=O)c34)C2=O)c1` (centres undefined) registered a TGI above 100 µM.

`CCCCCCCCCCCCCC[n+]1cccc(C(N)=O)c1`: the GI50 was 2.01 µM and the TGI was found to be 5.52 µM.

Compound `Cc1cccc(C)c1N1C(=O)C(=O)C(c2nc3ccccc3s2)C(=Nc2cccc3c(=O)[nH][nH]c(=O)c23)C1=O` (centres undefined) showed a TGI above 100 µM.

In the case of `C/C1=C\CC[C@@](C)(O)[C@@H]2C[C@H](CC/C(C)=C/CC1)C1(CC1)C(=O)O2`, the GI50 is 18 µM and the TGI worked out at 41.3 µM.

For `COc1cc(C2c3cc4c(cc3[C@@H](Nc3ccc5c(c3)OCCO5)C3COC(=O)[C@H]23)OCO4)cc(OC)c1O` (some centres undefined), the TGI is above 47.6 µM.

The test system of another assay is HOP-92 NSCLC. Description: NCI anticancer screen, dose series, 48 h.
In the case of `O=C(/C=C/c1cccc(O)c1)c1cccc(-n2cc(-c3ccc4ccccc4c3)[nH]c2=O)c1`, the GI50 is 0.518 µM and the TGI is 8.69 µM.

`COc1ccc2[nH]c(-c3ccc(O)cc3)cc(=O)c2c1` gave a TGI of 43.9 µM.

Compound `Cc1cc(C)n(C2=NS(=O)(=O)c3ccccc3N2C)n1` displayed a TGI above 100 µM.

Compound `O=C1c2cccc3cccc(c23)C(=O)N1O` registered a TGI of 94.5 µM.

As for `O=C1/C(=C/c2ccc([N+](=O)[O-])cc2)COc2ccc(O)cc21`, the GI50 was 38.6 µM and the TGI was above 100 µM.

In turn, `CCOC(OC1=C(C#N)CCCC1)C(CC)[Se]c1ccccc1` (centres undefined) came in with a TGI of 61.3 µM.

Take `COC(=O)c1ccc2c(c1)C(=O)c1c-2n(CCCN=[N+]=[N-])c(=O)c2cc([N+](=O)[O-])ccc12`: the GI50 is 17.5 µM and the TGI turned out to be 53.3 µM.

Take `C=C1C(=O)C23C(O)C1CC[C@H]2C12CCCC(C)(COC(C)=O)[C@H]1[C@H](O)[C@]3(O)OC2` (some centres undefined): the TGI was determined as 3.02 µM.

Regarding `O=S1CSSC1`, the TGI is 57.4 µM.

`CN(C)C(=S)Nc1nnc(Nc2ccccc2)s1`: the TGI is above 100 µM.

Consider `O=[N+]([O-])c1ccc(-c2cc3c(Nc4ccc(Cl)c(C(F)(F)F)c4)ncnc3s2)cc1`, for which the GI50 was 0.963 µM and the TGI was 4.95 µM.

Compound `Cc1ccccc1/C=C/C(=O)c1ccccc1` had a TGI of 37.6 µM.

In turn, `CC1(C)CC(=O)C(CC2C(=O)c3ccccc3C2=O)C(=O)C1` registered a TGI above 100 µM.

In the case of `CCOC(=O)N1CCN(CCCCCOc2ccccc2C2CCCCC2)CC1`, the GI50 is 4.07 µM and the TGI worked out at 17.5 µM.

Turning to `Cc1ccc(C)c(N2C(=O)C(=O)C(c3nc4ccccc4s3)C(=Nc3cccc4c(=O)[nH][nH]c(=O)c34)C2=O)c1` (centres undefined), the TGI is above 100 µM.

`CCCCCCCCCCCCCC[n+]1cccc(C(N)=O)c1`: the GI50 is 0.657 µM and the TGI came to 3.49 µM.

In turn, `Cc1cccc(C)c1N1C(=O)C(=O)C(c2nc3ccccc3s2)C(=Nc2cccc3c(=O)[nH][nH]c(=O)c23)C1=O` (centres undefined) returned a TGI above 100 µM.

The compound `COc1cc(C2c3cc4c(cc3[C@@H](Nc3ccc5c(c3)OCCO5)C3COC(=O)[C@H]23)OCO4)cc(OC)c1O` (some centres undefined) gave a TGI of 4.64 µM.

In a further assay the test system is 786-0 renal. Put plainly: NCI anticancer screen, dose series, 48 h.
Regarding `O=C(/C=C/c1cccc(O)c1)c1cccc(-n2cc(-c3ccc4ccccc4c3)[nH]c2=O)c1`, the GI50 is 1.74 µM and the TGI was 3.13 µM.

As to `COc1ccc2[nH]c(-c3ccc(O)cc3)cc(=O)c2c1`, the TGI is above 58.1 µM.

Take `Cc1cc(C)n(C2=NS(=O)(=O)c3ccccc3N2C)n1`: the TGI was above 100 µM.

On to `O=C1c2cccc3cccc(c23)C(=O)N1O`, for which the TGI was above 100 µM.

Regarding `CSc1ccc(N(C)c2nc(C)nc3c2CCC3)cc1`, the GI50 was below 0.01 µM and the TGI came out at 50 µM.

Regarding `O=C1/C(=C/c2ccc([N+](=O)[O-])cc2)COc2ccc(O)cc21`, the GI50 was 3.05 µM and the TGI was 11.7 µM.

For `CCOC(OC1=C(C#N)CCCC1)C(CC)[Se]c1ccccc1` (centres undefined), the TGI turned out to be 31.6 µM.

Regarding `COC(=O)c1ccc2c(c1)C(=O)c1c-2n(CCCN=[N+]=[N-])c(=O)c2cc([N+](=O)[O-])ccc12`, the GI50 is 25.1 µM and the TGI was 79 µM.

For `C=C1C(=O)C23C(O)C1CC[C@H]2C12CCCC(C)(COC(C)=O)[C@H]1[C@H](O)[C@]3(O)OC2` (some centres undefined), the TGI amounted to 2.24 µM.

For the compound `O=S1CSSC1`, the TGI is 47 µM.

As for `CN(C)C(=S)Nc1nnc(Nc2ccccc2)s1`, the TGI was above 100 µM.

Consider `CN1c2ccccc2SC2C(c3ccccc3)=NOC21` (centres undefined), for which the TGI is above 100 µM.

The compound `COc1c(O)c(OC)c2oc(-c3ccc(O)cc3)c(OC)c(=O)c2c1O` had a TGI of 86.3 µM.

On to `O=[N+]([O-])c1ccc(-c2cc3c(Nc4ccc(Cl)c(C(F)(F)F)c4)ncnc3s2)cc1`, for which the GI50 is 1.1 µM and the TGI was above 20.6 µM.

Compound `Cc1ccccc1/C=C/C(=O)c1ccccc1` gave a TGI of 29.9 µM.

For `CC1(C)CC(=O)C(CC2C(=O)c3ccccc3C2=O)C(=O)C1`, the TGI was above 100 µM.

Consider `CCOC(=O)N1CCN(CCCCCOc2ccccc2C2CCCCC2)CC1`, for which the GI50 is 1.86 µM and the TGI was found to be 3.78 µM.

Regarding `Cc1ccc(C)c(N2C(=O)C(=O)C(c3nc4ccccc4s3)C(=Nc3cccc4c(=O)[nH][nH]c(=O)c34)C2=O)c1` (centres undefined), the TGI is above 100 µM.

For the compound `O=C1c2ccccc2-c2c1c1ccccc1c(=O)n2CCNCCn1c2c(c3ccccc3c1=O)C(=O)c1ccccc1-2`, the GI50 was 12.2 µM and the TGI was above 25 µM.

With `CCCCCCCCCCCCCC[n+]1cccc(C(N)=O)c1`, the GI50 is 1.32 µM and the TGI turned out to be 2.82 µM.

As for `Cc1cccc(C)c1N1C(=O)C(=O)C(c2nc3ccccc3s2)C(=Nc2cccc3c(=O)[nH][nH]c(=O)c23)C1=O` (centres undefined), the TGI was above 100 µM.

For the compound `C/C1=C\CC[C@@](C)(O)[C@@H]2C[C@H](CC/C(C)=C/CC1)C1(CC1)C(=O)O2`, the GI50 was 44.6 µM and the TGI was above 100 µM.

Compound `COc1cc(C2c3cc4c(cc3[C@@H](Nc3ccc5c(c3)OCCO5)C3COC(=O)[C@H]23)OCO4)cc(OC)c1O` (some centres undefined) returned a TGI of 3.11 µM.

Source of the values: PubChem BioAssay (NCI).
